{
  "source": "ChEMBL document CHEMBL1201861",
  "about": "“Genomics of Drug Sensitity in Cancer screening data, Wellcome Trust Sanger Institute”",
  "test_in_all_cases": "cells",
  "key": {"[1]": {"system": "HCC2218", "format": "functional, cell-based", "details": "Homo sapiens", "description": "SANGER: Inhibition of human HCC2218 cell growth in a cell viability assay."}, "[2]": {"system": "IA-LM", "format": "functional, cell-based, Homo sapiens", "details": "Homo sapiens, IA-LM", "description": "SANGER: Inhibition of human IA-LM cell growth in a cell viability assay."}, "[3]": {"system": "ES6", "format": "functional, cell-based, Homo sapiens", "details": "Homo sapiens, ES6", "description": "SANGER: Inhibition of human ES6 cell growth in a cell viability assay."}, "[4]": {"system": "BHT-101", "format": "functional, cell-based, Homo sapiens", "details": "Homo sapiens, BHT-101", "description": "SANGER: Inhibition of human BHT-101 cell growth in a cell viability assay."}, "[5]": {"system": "SBC-1", "format": "functional, cell-based", "details": "Homo sapiens", "description": "SANGER: Inhibition of human SBC-1 cell growth in a cell viability assay."}, "[6]": {"system": "NY", "format": "functional, cell-based, Homo sapiens", "details": "Homo sapiens, NY", "description": "SANGER: Inhibition of human NY cell growth in a cell viability assay."}, "[7]": {"system": "LAN-6", "format": "functional, cell-based, Homo sapiens", "details": "Homo sapiens, LAN-6", "description": "SANGER: Inhibition of human LAN-6 cell growth in a cell viability assay."}, "[8]": {"system": "MDA-MB-453", "format": "functional, cell-based, Homo sapiens", "details": "Homo sapiens, MDA-MB-453", "description": "SANGER: Inhibition of human MDA-MB-453 cell growth in a cell viability assay."}, "[9]": {"system": "RD", "format": "functional, cell-based, Homo sapiens", "details": "Homo sapiens, RD", "description": "SANGER: Inhibition of human RD cell growth in a cell viability assay."}, "[10]": {"system": "HCC1937", "format": "functional, cell-based, Homo sapiens", "details": "Homo sapiens, HCC1937", "description": "SANGER: Inhibition of human HCC1937 cell growth in a cell viability assay."}, "[11]": {"system": "LS-123", "format": "functional, cell-based, Homo sapiens", "details": "Homo sapiens, LS-123", "description": "SANGER: Inhibition of human LS-123 cell growth in a cell viability assay."}, "[12]": {"system": "SNU-449", "format": "functional, cell-based, Homo sapiens", "details": "Homo sapiens, SNU-449", "description": "SANGER: Inhibition of human SNU-449 cell growth in a cell viability assay."}, "[13]": {"system": "SW982", "format": "functional, cell-based", "details": "Homo sapiens", "description": "SANGER: Inhibition of human SW982 cell growth in a cell viability assay."}, "[14]": {"system": "SN12C", "format": "functional, cell-based, Homo sapiens", "details": "Homo sapiens, SN12C", "description": "SANGER: Inhibition of human SN12C cell growth in a cell viability assay."}, "[15]": {"system": "HCC1954", "format": "functional, cell-based, Homo sapiens", "details": "Homo sapiens, HCC1954", "description": "SANGER: Inhibition of human HCC1954 cell growth in a cell viability assay."}, "[16]": {"system": "MFH-ino", "format": "functional, cell-based", "details": "Homo sapiens", "description": "SANGER: Inhibition of human MFH-ino cell growth in a cell viability assay."}, "[17]": {"system": "KS-1", "format": "functional, cell-based, Homo sapiens", "details": "Homo sapiens, KS-1", "description": "SANGER: Inhibition of human KS-1 cell growth in a cell viability assay."}, "[18]": {"system": "ALL-PO", "format": "functional, cell-based", "details": "Homo sapiens", "description": "SANGER: Inhibition of human ALL-PO cell growth in a cell viability assay."}, "[19]": {"system": "DK-MG", "format": "functional, cell-based, Homo sapiens", "details": "Homo sapiens, DK-MG", "description": "SANGER: Inhibition of human DK-MG cell growth in a cell viability assay."}, "[20]": {"system": "CAMA-1", "format": "functional, cell-based, Homo sapiens", "details": "Homo sapiens, CAMA-1", "description": "SANGER: Inhibition of human CAMA-1 cell growth in a cell viability assay."}, "[21]": {"system": "Huh-7", "format": "functional, cell-based, Homo sapiens", "details": "Homo sapiens, Huh-7", "description": "SANGER: Inhibition of human HuH-7 cell growth in a cell viability assay."}, "[22]": {"system": "OVCAR-5", "format": "functional, cell-based, Homo sapiens", "details": "Homo sapiens, OVCAR-5", "description": "SANGER: Inhibition of human OVCAR-5 cell growth in a cell viability assay."}, "[23]": {"system": "IST-SL1", "format": "functional, cell-based, Homo sapiens", "details": "Homo sapiens, IST-SL1", "description": "SANGER: Inhibition of human IST-SL1 cell growth in a cell viability assay."}, "[24]": {"system": "A4-Fuk", "format": "functional, cell-based", "details": "Homo sapiens", "description": "SANGER: Inhibition of human A4-Fuk cell growth in a cell viability assay."}, "[25]": {"system": "KLE", "format": "functional, cell-based, Homo sapiens", "details": "Homo sapiens, KLE", "description": "SANGER: Inhibition of human KLE cell growth in a cell viability assay."}, "[26]": {"system": "RPMI-2650", "format": "functional, cell-based, Homo sapiens", "details": "Homo sapiens, RPMI-2650", "description": "SANGER: Inhibition of human RPMI-2650 cell growth in a cell viability assay."}, "[27]": {"system": "SK-LMS-1", "format": "functional, cell-based, Homo sapiens", "details": "Homo sapiens, SK-LMS-1", "description": "SANGER: Inhibition of human SK-LMS-1 cell growth in a cell viability assay."}, "[28]": {"system": "SF-268", "format": "functional, cell-based, Homo sapiens", "details": "Homo sapiens, SF-268", "description": "SANGER: Inhibition of human SF268 cell growth in a cell viability assay."}, "[29]": {"system": "D283 Med", "format": "functional, cell-based, Homo sapiens", "details": "Homo sapiens, D283 Med", "description": "SANGER: Inhibition of human D-283MED cell growth in a cell viability assay."}, "[30]": {"system": "639-V", "format": "functional, cell-based, Homo sapiens", "details": "Homo sapiens, 639-V", "description": "SANGER: Inhibition of human 639-V cell growth in a cell viability assay."}, "[31]": {"system": "COLO-800", "format": "functional, cell-based, Homo sapiens", "details": "Homo sapiens, COLO-800", "description": "SANGER: Inhibition of human COLO-800 cell growth in a cell viability assay."}, "[32]": {"system": "CAL-51", "format": "functional, cell-based, Homo sapiens", "details": "Homo sapiens, CAL-51", "description": "SANGER: Inhibition of human CAL-51 cell growth in a cell viability assay."}, "[33]": {"system": "WM-115", "format": "functional, cell-based, Homo sapiens", "details": "Homo sapiens, WM-115", "description": "SANGER: Inhibition of human WM-115 cell growth in a cell viability assay."}, "[34]": {"system": "MC-IXC", "format": "functional, cell-based, Homo sapiens", "details": "Homo sapiens, MC-IXC", "description": "SANGER: Inhibition of human MC-IXC cell growth in a cell viability assay."}, "[35]": {"system": "SAOS-2", "format": "functional, cell-based, Homo sapiens", "details": "Homo sapiens, SAOS-2", "description": "SANGER: Inhibition of human Saos-2 cell growth in a cell viability assay."}, "[36]": {"system": "5637", "format": "functional, cell-based, Homo sapiens", "details": "Homo sapiens", "description": "SANGER: Inhibition of human 5637 cell growth in a cell viability assay."}, "[37]": {"system": "NCI-H2122", "format": "functional, cell-based, Homo sapiens", "details": "Homo sapiens, NCI-H2122", "description": "SANGER: Inhibition of human NCI-H2122 cell growth in a cell viability assay."}, "[38]": {"system": "EW-3", "format": "functional, cell-based", "details": "Homo sapiens", "description": "SANGER: Inhibition of human EW-3 cell growth in a cell viability assay."}, "[39]": {"system": "MKN-1", "format": "functional, cell-based, Homo sapiens", "details": "Homo sapiens, MKN-1", "description": "SANGER: Inhibition of human MKN1 cell growth in a cell viability assay."}, "[40]": {"system": "KE-37", "format": "functional, cell-based", "details": "Homo sapiens", "description": "SANGER: Inhibition of human KE-37 cell growth in a cell viability assay."}, "[41]": {"system": "GAK", "format": "functional, cell-based, Homo sapiens", "details": "Homo sapiens, GAK", "description": "SANGER: Inhibition of human GAK cell growth in a cell viability assay."}, "[42]": {"system": "A388", "format": "functional, cell-based, Homo sapiens", "details": "Homo sapiens, A388", "description": "SANGER: Inhibition of human A388 cell growth in a cell viability assay."}, "[43]": {"system": "C3A", "format": "functional, cell-based, Homo sapiens", "details": "Homo sapiens, C3A", "description": "SANGER: Inhibition of human C3A cell growth in a cell viability assay."}, "[44]": {"system": "AN3-CA", "format": "functional, cell-based", "details": "Homo sapiens", "description": "SANGER: Inhibition of human AN3-CA cell growth in a cell viability assay."}, "[45]": {"system": "NCI-H2347", "format": "functional, cell-based, Homo sapiens", "details": "Homo sapiens, NCI-H2347", "description": "SANGER: Inhibition of human NCI-H2347 cell growth in a cell viability assay."}, "[46]": {"system": "CAL-120", "format": "functional, cell-based, Homo sapiens", "details": "Homo sapiens, CAL-120", "description": "SANGER: Inhibition of human CAL-120 cell growth in a cell viability assay."}, "[47]": {"system": "MEG-01", "format": "functional, cell-based", "details": "Homo sapiens", "description": "SANGER: Inhibition of human MEG-01 cell growth in a cell viability assay."}, "[48]": {"system": "NCI-H1437", "format": "functional, cell-based, Homo sapiens", "details": "Homo sapiens, NCI-H1437", "description": "SANGER: Inhibition of human NCI-H1437 cell growth in a cell viability assay."}, "[49]": {"system": "NCI-H1581", "format": "functional, cell-based, Homo sapiens", "details": "Homo sapiens, NCI-H1581", "description": "SANGER: Inhibition of human NCI-H1581 cell growth in a cell viability assay."}, "[50]": {"system": "SK-PN-DW", "format": "functional, cell-based", "details": "Homo sapiens", "description": "SANGER: Inhibition of human SK-PN-DW cell growth in a cell viability assay."}, "[51]": {"system": "VA-ES-BJ", "format": "functional, cell-based, Homo sapiens", "details": "Homo sapiens, VA-ES-BJ", "description": "SANGER: Inhibition of human VA-ES-BJ cell growth in a cell viability assay."}},
  "data": [
    {"molecule": "Nc1ccn([C@@H]2O[C@H](CO)[C@@H](O)[C@@H]2O)c(=O)n1", "note": "[CYTARABINE]", "values": [
      {"measurement": "IC50", "setting": "[1]", "result": "> 2000", "unit": "nM"},
      {"measurement": "IC50", "setting": "[2]", "result": "> 2000", "unit": "nM"},
      {"measurement": "IC50", "setting": "[3]", "result": 721, "unit": "nM"},
      {"measurement": "IC50", "setting": "[4]", "result": 41.8, "unit": "nM"},
      {"measurement": "IC50", "setting": "[5]", "result": "> 2000", "unit": "nM"},
      {"measurement": "IC50", "setting": "[6]", "result": "> 2000", "unit": "nM"},
      {"measurement": "IC50", "setting": "[7]", "result": "> 2000", "unit": "nM"},
      {"measurement": "IC50", "setting": "[8]", "result": "> 2000", "unit": "nM"},
      {"measurement": "IC50", "setting": "[9]", "result": 1270, "unit": "nM"},
      {"measurement": "IC50", "setting": "[10]", "result": "> 2000", "unit": "nM"},
      {"measurement": "IC50", "setting": "[11]", "result": "> 2000", "unit": "nM"},
      {"measurement": "IC50", "setting": "[12]", "result": "> 2000", "unit": "nM"},
      {"measurement": "IC50", "setting": "[13]", "result": 91.2, "unit": "nM"},
      {"measurement": "IC50", "setting": "[14]", "result": 623, "unit": "nM"},
      {"measurement": "IC50", "setting": "[15]", "result": "> 2000", "unit": "nM"},
      {"measurement": "IC50", "setting": "[16]", "result": "> 2000", "unit": "nM"},
      {"measurement": "IC50", "setting": "[17]", "result": "> 2000", "unit": "nM"},
      {"measurement": "IC50", "setting": "[18]", "result": 287, "unit": "nM"},
      {"measurement": "IC50", "setting": "[19]", "result": "> 2000", "unit": "nM"},
      {"measurement": "IC50", "setting": "[20]", "result": "> 2000", "unit": "nM"},
      {"measurement": "IC50", "setting": "[21]", "result": "> 2000", "unit": "nM"},
      {"measurement": "IC50", "setting": "[22]", "result": 220, "unit": "nM"},
      {"measurement": "IC50", "setting": "[23]", "result": "> 2000", "unit": "nM"},
      {"measurement": "IC50", "setting": "[24]", "result": 1170, "unit": "nM"},
      {"measurement": "IC50", "setting": "[25]", "result": "> 2000", "unit": "nM"},
      {"measurement": "IC50", "setting": "[26]", "result": 401, "unit": "nM"},
      {"measurement": "IC50", "setting": "[27]", "result": "> 2000", "unit": "nM"},
      {"measurement": "IC50", "setting": "[28]", "result": 1360, "unit": "nM"},
      {"measurement": "IC50", "setting": "[29]", "result": 360, "unit": "nM"},
      {"measurement": "IC50", "setting": "[30]", "result": "> 2000", "unit": "nM"},
      {"measurement": "IC50", "setting": "[31]", "result": 425, "unit": "nM"},
      {"measurement": "IC50", "setting": "[32]", "result": 571, "unit": "nM"},
      {"measurement": "IC50", "setting": "[33]", "result": "> 2000", "unit": "nM"},
      {"measurement": "IC50", "setting": "[34]", "result": 41.4, "unit": "nM"},
      {"measurement": "IC50", "setting": "[35]", "result": 682, "unit": "nM"},
      {"measurement": "IC50", "setting": "[36]", "result": 501, "unit": "nM"},
      {"measurement": "IC50", "setting": "[37]", "result": 430, "unit": "nM"},
      {"measurement": "IC50", "setting": "[38]", "result": 830, "unit": "nM"},
      {"measurement": "IC50", "setting": "[39]", "result": 1740, "unit": "nM"},
      {"measurement": "IC50", "setting": "[40]", "result": 111, "unit": "nM"},
      {"measurement": "IC50", "setting": "[41]", "result": "> 2000", "unit": "nM"},
      {"measurement": "IC50", "setting": "[42]", "result": 740, "unit": "nM"},
      {"measurement": "IC50", "setting": "[43]", "result": "> 2000", "unit": "nM"},
      {"measurement": "IC50", "setting": "[44]", "result": 1840, "unit": "nM"},
      {"measurement": "IC50", "setting": "[45]", "result": "> 2000", "unit": "nM"},
      {"measurement": "IC50", "setting": "[46]", "result": "> 2000", "unit": "nM"},
      {"measurement": "IC50", "setting": "[47]", "result": "> 2000", "unit": "nM"},
      {"measurement": "IC50", "setting": "[48]", "result": 798, "unit": "nM"},
      {"measurement": "IC50", "setting": "[49]", "result": 1770, "unit": "nM"},
      {"measurement": "IC50", "setting": "[50]", "result": 416, "unit": "nM"},
      {"measurement": "IC50", "setting": "[51]", "result": 71.7, "unit": "nM"}
    ]}
  ]
}
